Patent US7968526B2, “Antisense oligonucleotides directed to ribonucleotide reductase R2 and uses thereof in the treatment of cancer” (Lorus Therapeutics Inc., priority 2003, dated 2011)
“Also recorded” adds a separate entry of the source.

How the values were obtained:
Assay type in all cases: in vivo, human cells in mice
[1] = system: Caki-1 human renal cancer cells; test: Caki-1 renal tumour xenograft, combination with 5-FU or vinblastin (1.3); details: Caki (renal), CD-1 mouse as printed; SEQ ID NO:1 10 mg/kg i.v. every other day; 5-FU 13 mg/kg/day i.p.; vinblastin 0.6 mg/kg/week i.p.
Source text: All treatments were stopped at day 22. […] All treatments were stopped at day 32. […] All treatments were stopped at day 36.

[2] = system: A498 human kidney cancer cells; test: A498 kidney tumour xenograft in SCID mice, controls and chemotherapeutics (Example 7); details: oligonucleotides 10 mg/kg/2 days i.v., 5-FU 13 mg/kg/day×5, vinblastine 1 mg/kg/week, gemcitabine 100 mg/kg/week
Source text: CD-1 athymic female nude mice, BALB/c nu/nu nude mice, SCID, and SCID beige mice were purchased from Charles River Laboratories (Montreal, Canada) and experiments were typically initiated when the mice were 6-7 weeks old. […] Each experimental group typically contained 10 mice. After the size of tumour reached a mean tumour volume of 50-100 mm^3, treatment was initiated. […] Anti-tumour activity was estimated by the measurement of tumour volume with a calliper at two-three day intervals. Tumour volume was calculated by a formula L×W×H/2, where L indicates length, W indicates width and H indicates height. Within 24 hours after the last treatment, the animals were sacrificed and tumour and body weights were measured. Results of statistical analyses of the data are presented as P values in the figure legends.
Three additional treatment groups received: 5-FU (13 mg/kg/day×5), vinblastine (1 mg/kg/week) and gemcitabine (100 mg/kg/week). […] Caliper measurements at 1-week intervals were used to calculate tumour volumes. Each point in FIG. 28C represents mean tumour volume calculated from 10 animals per experimental group (with the exception of SEQ ID NO: 1 which was 8 animals). […] After 54 days the mice were sacrificed and the A498 tumours weighed. Each bar represents the mean tumour weight and standard error calculated for each treatment group.

[3] = system: MDA-MB-231 human breast cancer cells; test: MDA-MB-231 breast tumour xenograft in CD-1 nude mice, combination with taxol or doxorubicin (1.7); details: MDA-MB-231 (breast), CD-1; SEQ ID NO:1 10 mg/kg i.v. every other day; Taxol 10 mg/kg i.v. weekly; doxorubicin 5 mg/kg i.v. weekly
Experimental: After 52 days the mice were sacrificed and the tumours weighed. […] Mitoxantrone was administered intravenously once at the beginning of the treatments at a dose of 2 mg/kg (FIG. 4A) or once a week for four weeks at a reduced dose of 0.8 mg/kg (FIG. 4B). All treatments were stopped at day 50 (FIG. 4A) or 48 (FIG. 4B), respectively. […] Mitoxantrone was administered intravenously once at the beginning of the treatments at a dose of 2 mg/kg (FIG. 5A) or once a week for four weeks at a reduced dose of 0.8 mg/kg (FIG. 5B). All treatments were stopped at day 42 (FIG. 5A) or 38 (FIG. 5B), respectively. […] A2058 is a metastatic melanoma cell line. […] All treatments were stopped at day 24. […] Taxol was administered intravenously once a week at a dose of 10 mg/kg for three (FIG. 7A) or four weeks (FIG. 7C). Doxorubicin was administered intravenously once a week at a dose of 5 mg/kg for first three weeks (FIG. 7A) or for two weeks (FIG. 7C). All treatments were stopped at day 33 (FIG. 7A) or at day 26 (FIG. 7C), respectively. […] In FIG. 7C, antitumour activities were estimated by the inhibition of tumour volume, which was measured with calipers. Each point represents mean tumour volume calculated from 10 animals per experimental group. […] Taxol was administered intravenously once a week for first three weeks and intraperitoneally once a week for next two weeks at a dose of 10 mg/kg. Cisplatin was administered intravenously once a week for first three weeks and intraperitoneally once a week for next two weeks at a dose of 4 mg/kg. All treatments were stopped at day 40. Antitumour activities were estimated by the inhibition of tumour volume, which was measured with caliper. Each point represents mean tumour volume calculated from 9 animals per experimental group.

For O=c1[nH]cc(F)c(=O)[nH]1 [5-FU, 5-fluorouracil], the “Tumour weight as % of saline control” value [1] was 52% and the “Effect on tumour growth (volume and weight)” value [2] was “ineffective in stabilization of the tumours; also recorded: tumours that were equal in volume and weight to tumours of saline-treated animals”.
In the case of COc1cccc2c1C(=O)c1c(O)c3c(c(O)c1C2=O)C[C@@](O)(C(=O)CO)C[C@@H]3O[C@H]1C[C@H](N)[C@H](O)[C@H](C)O1 [Doxorubicin], the “Tumour weight as % of saline control” value [3] is reported as 41%.
